Laboratory results from patent US20030134892A1, “Compositions for treatment of head and neck cancers, and methods of making and using the same” (priority 2001, published 2003).

Assays:
JHU012 cells = test: Experiment 1: human orthotopic squamous cell head and neck cancer model, tumor size after treatment; type: in vivo, Nu/nu mice; details: 45 days following treatment
Method: The efficacy of paclitaxel microsphere formulations in human orthotopic squamous cell head and neck cancer models were tested below.
Nu/nu mice were injected with 1×10^7 JHU012 cells into the anterior floor of mouth near the genial tubercle of the mandible. 12 days following cell injection, the tumors were approximately 80 mm^3. […] 45 days following treatment, the animals were sacrificed and tumors measured again.

[1] = system: human head and neck cancer cell line; test: Experiment 2: human tumor model with radiation, orthotopic tumor in the neck of a nude mouse; type: in vivo; details: injected intratumorally three week post cell injection, followed by fractionated radiation (RT) 2 gy/day for 4 days
Method: In this study, the model is also a human head and neck cancer cell line but the tumor was grown orthotopically in the neck of a nude mouse. Three week post cell injection the tumors were injected intratumorally with paclimer and then followed by fractionated radiation, 2 gy/day for 4 days.

Row | Compound | Tumor Size at end of Experiment 1 (JHU012 cells; 0.15 mmol/kg/day oral, 4 days) [mm^3] | Tumor Size [1] [mm^3] | Tumor Size at end of Experiment 1 (JHU012 cells; 24 mg/kg i.p., tumors approx. 80 mm^3 at treatment) [mm^3]
1 | O=c1[nH]cc(F)c(=O)[nH]1 [5-fu, 5-fluorouracil] | 518.7 ± 96.3 | – | –
2 | CC(=O)O[C@H]1C(=O)[C@@]2(C)[C@H]([C@H](OC(=O)c3ccccc3)[C@]3(O)C[C@H](OC(=O)[C@H](O)[C@@H](NC(=O)c4ccccc4)c4ccccc4)C(C)=C1C3(C)C)[C@]1(OC(C)=O)CO[C@@H]1C[C@@H]2O [ptx, paclitaxel] | – | 102.3 ± 37.0 | 973.3 ± 91.7
